The results in this text go back to US12673975B2, “Cyclic peptide, cell scaffold material, cell separating material, and medium” (FUJIFILM Corporation, priority 2019, dated 2026).

Series [1] addresses human integrin αvβ5 (Homo sapiens, UniProt P06756+P18084). Briefly: Evaluation of integrin binding property (surface plasmon resonance, Biacore 3000, immobilized cyclic peptide). The essentials:
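Human αvβ5 (30-1,000 nM) flowed for 10 min at 25 °C over immobilized cyclic peptide in 20 mM HEPES, 150 mM NaCl, 5 mM MgCl2, pH 7.4, followed by 30 min running buffer and 0.5 M EDTA regeneration. Dissociation constant from peptide minus unimmobilized channel, scored into standard grades.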

A short description of series [2]: Evaluation of molecule stability (alkali treatment, residual rate by LC/MS). The format is physicochemical. Particulars: for Stability (molecule stability, residual rate of the cyclic peptide rank): alkali treatment, residual rate by LC/MS; for Performance evaluation: Stability (residual rate of cyclic peptide after alkali treatment): 500 μM peptide aqueous solution plus equivalent of 1 M sodium hydroxide, 15° C., 3 hours, LC/MS peak area. The essentials:
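Stability read as percent of summed LC/MS peak area remaining versus untreated peptide (C18, 45 °C, 10 mM ammonium formate pH 3, ESI positive/negative). Treatment: 500 μM peptide in water plus an equivalent of 1 M NaOH, 15 °C for 3 hours.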

Setting [3] is: surface plasmon resonance, immobilized cyclic peptide, human integrin αvβ5, read-out: Binding activity (integrin binding property, dissociation constant rank).
The mark [4] stands for this setting: SPR, 25° C., HEPES buffer with 5 mM magnesium chloride, integrin 30-1,000 nM, read-out: Performance evaluation: Binding activity (dissociation constant between the cyclic peptide and human integrin αvβ5).

Where two headings read alike, the source gives them in different places. Starred links: 1 amine or outer side, 2 acyl side, 3 side chain; linkers in the order of their positions; H or OH if unused. Positions of bridges follow the written chain, without caps; N, C: chain ends. Non-standard residues stand in square brackets, D forms with d. Residues, ends and D or L forms follow the SMILES beside them. hCys = N[C@@H](CCS)C(=O)O; Dab = NCC[C@H](N)C(=O)O; Dap = NC[C@H](N)C(=O)O; X1 = O=C(C[*:2])[*:1]; X2 = O=C(C[*:1])[*:2]; βAla = NCCC(=O)O

Chain of human integrin αvβ5 (P06756 31-1048): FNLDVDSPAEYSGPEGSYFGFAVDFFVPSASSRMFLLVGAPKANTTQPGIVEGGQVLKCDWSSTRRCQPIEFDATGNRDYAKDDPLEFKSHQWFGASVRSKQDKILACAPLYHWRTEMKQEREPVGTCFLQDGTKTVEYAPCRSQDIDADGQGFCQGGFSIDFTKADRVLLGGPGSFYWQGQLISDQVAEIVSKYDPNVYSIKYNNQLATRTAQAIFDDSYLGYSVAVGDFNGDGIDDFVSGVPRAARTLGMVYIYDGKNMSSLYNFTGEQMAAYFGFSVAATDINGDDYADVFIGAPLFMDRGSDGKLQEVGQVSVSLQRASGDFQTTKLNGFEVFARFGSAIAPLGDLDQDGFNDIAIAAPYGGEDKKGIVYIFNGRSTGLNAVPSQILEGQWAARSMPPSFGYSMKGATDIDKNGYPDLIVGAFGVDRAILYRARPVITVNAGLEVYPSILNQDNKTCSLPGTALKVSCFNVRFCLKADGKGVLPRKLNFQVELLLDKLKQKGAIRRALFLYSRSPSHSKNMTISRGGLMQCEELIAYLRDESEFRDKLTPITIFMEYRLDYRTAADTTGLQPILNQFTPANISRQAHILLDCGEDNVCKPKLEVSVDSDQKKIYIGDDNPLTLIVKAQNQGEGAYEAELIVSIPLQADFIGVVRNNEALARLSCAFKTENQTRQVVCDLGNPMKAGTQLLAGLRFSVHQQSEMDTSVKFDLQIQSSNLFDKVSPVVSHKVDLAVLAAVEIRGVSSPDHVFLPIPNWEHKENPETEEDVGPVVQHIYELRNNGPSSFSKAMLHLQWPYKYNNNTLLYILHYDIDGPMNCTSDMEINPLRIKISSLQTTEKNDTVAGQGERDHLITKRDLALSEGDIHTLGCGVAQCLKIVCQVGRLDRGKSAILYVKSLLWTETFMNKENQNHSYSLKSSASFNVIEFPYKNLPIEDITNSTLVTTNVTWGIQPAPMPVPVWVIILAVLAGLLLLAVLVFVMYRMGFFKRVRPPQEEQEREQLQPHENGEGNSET
Chain of human integrin αvβ5 (P18084 24-799): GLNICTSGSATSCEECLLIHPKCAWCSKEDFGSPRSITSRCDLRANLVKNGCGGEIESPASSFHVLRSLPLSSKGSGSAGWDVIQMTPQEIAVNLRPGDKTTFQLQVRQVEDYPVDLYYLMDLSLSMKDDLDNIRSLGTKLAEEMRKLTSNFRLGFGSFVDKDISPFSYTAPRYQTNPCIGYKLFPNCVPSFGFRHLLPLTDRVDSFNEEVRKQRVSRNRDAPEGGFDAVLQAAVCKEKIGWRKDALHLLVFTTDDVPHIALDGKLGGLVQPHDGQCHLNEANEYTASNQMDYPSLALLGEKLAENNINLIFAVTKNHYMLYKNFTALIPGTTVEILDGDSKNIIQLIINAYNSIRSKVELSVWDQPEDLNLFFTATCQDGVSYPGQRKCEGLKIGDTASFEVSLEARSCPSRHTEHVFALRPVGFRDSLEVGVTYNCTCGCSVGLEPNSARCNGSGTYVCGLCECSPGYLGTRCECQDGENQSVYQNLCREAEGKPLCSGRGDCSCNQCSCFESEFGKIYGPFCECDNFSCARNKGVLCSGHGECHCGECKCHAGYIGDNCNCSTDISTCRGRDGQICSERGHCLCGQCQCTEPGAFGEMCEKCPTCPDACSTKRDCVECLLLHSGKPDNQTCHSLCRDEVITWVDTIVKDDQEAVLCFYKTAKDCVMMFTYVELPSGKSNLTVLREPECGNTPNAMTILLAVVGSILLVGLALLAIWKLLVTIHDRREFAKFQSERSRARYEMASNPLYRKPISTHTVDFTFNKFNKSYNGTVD

Take `CC(C)[C@@H]1NC(=O)[C@@H](NC(=O)[C@H](CCCCN)NC(=O)[C@H](CCCCN)NC(=O)[C@@H](N)CCCCN)CCSCC(=O)NCC[C@@H](C(=O)O)NC(=O)CNC(=O)[C@H](Cc2ccccc2)NC(=O)[C@H]([C@@H](C)O)NC(=O)[C@H](CC(=O)O)NC(=O)CNC(=O)[C@H](CCCNC(=N)N)NC(=O)[C@@H]2CCCN2C1=O` [Cyclic peptide 152, KKK-(Hcy)-VPRGDTFG(Dab(acetyl))] (H-KKK[hCys]VPRGDTFG[Dab]-OH; linker 4-13 via X2): the Kd in series [1] (setting [3]) was below 50 nM. The “Stability (molecule stability, residual rate of the cyclic peptide rank)” value in series [2] is recorded as “A (The residual rate of the cyclic peptide is 70% or more.)”.
The matching figures for `CC[C@H](C)[C@@H]1NC(=O)[C@@H](NC(=O)CNC(=O)[C@H](CCCCN)NC(=O)[C@H](CCCCN)NC(=O)[C@@H](N)CCCCN)CCSCC(=O)NCCCC[C@@H](C(=O)N[C@@H](C)C(=O)O)NC(=O)[C@H](CCCNC(=N)N)NC(=O)[C@H](Cc2ccccc2)NC(=O)[C@H]([C@@H](C)O)NC(=O)[C@H](CC(=O)O)NC(=O)CNC(=O)[C@H](CCCNC(=N)N)NC(=O)[C@@H]2CCCN2C1=O` [Cyclic peptide 116, KKKG-(Hcy)-IPRGDTFR(Lys(acetyl))A] (H-KKKG[hCys]IPRGDTFRKA-OH; linker 5-14 via X2): below 50 nM and “A (The residual rate of the cyclic peptide is 70% or more.)”.
For the molecule `N=C(N)NCCC[C@@H]1NC(=O)[C@H](Cc2ccc(O)cc2)NC(=O)[C@H](CC(N)=O)NC(=O)[C@H](CC(=O)O)NC(=O)CNC(=O)[C@H](CCCNC(=N)N)NC(=O)[C@@H]2CCCN2C(=O)[C@H](CCC(=O)O)NC(=O)[C@@H](NC(=O)[C@H](CCCCN)NC(=O)[C@H](CCCCN)NC(=O)[C@@H](N)CCCCN)CNC(=O)CSCC[C@@H](C(=O)O)NC1=O` [Cyclic peptide 46, KKK(Dap(acetyl))EPRGDNYR-(Hcy)] (H-KKK[Dap]EPRGDNYR[hCys]-OH; linker 4-13 via X1), the Kd in series [1] (setting [4]) lay within 50 to 100 nM. Further, in series [2], the “Performance evaluation: Stability (residual rate of cyclic peptide after alkali treatment)” value was “B (The residual rate of the cyclic peptide is 50% or more and less than 70%.)”.
For `CC[C@H](C)[C@@H]1NC(=O)[C@@H](NC(=O)[C@H](CCCCN)NC(=O)[C@H](CCCCN)NC(=O)[C@@H](N)CCCCN)CCSCC(=O)NCC[C@@H](C(=O)NCC(=O)O)NC(=O)[C@H](CCCNC(=N)N)NC(=O)[C@H](Cc2ccccc2)NC(=O)[C@H](CC(N)=O)NC(=O)[C@H](CC(=O)O)NC(=O)CNC(=O)[C@H](CCCNC(=N)N)NC(=O)[C@@H]2CCCN2C1=O` [Cyclic peptide 4, KKK-(Hcy)-IPRGDNFR(Dab(acetyl))G] (H-KKK[hCys]IPRGDNFR[Dab]G-OH; linker 4-13 via X2), the Kd in series [1] (setting [4]) was below 50 nM. Further, the “Performance evaluation: Stability (residual rate of cyclic peptide after alkali treatment)” value in series [2] is on record as “A (The residual rate of the cyclic peptide is 70% or more.)”.
For `C[C@@H]1NC(=O)[C@H](Cc2ccccc2)NC(=O)[C@H]([C@@H](C)O)NC(=O)[C@H](CC(=O)O)NC(=O)CNC(=O)[C@H](CCCNC(=N)N)NC(=O)[C@@H]2CCCN2C(=O)[C@H](Cc2ccc(O)cc2)NC(=O)[C@@H](NC(=O)[C@H](CCCCN)NC(=O)[C@H](CCCCN)NC(=O)[C@@H](N)CCCCN)CCSCC(=O)NCC[C@@H](C(=O)O)NC1=O` [Cyclic peptide 148, KKK-(Hcy)-YPRGDTFA(Dab(acetyl))] (H-KKK[hCys]YPRGDTFA[Dab]-OH; linker 4-13 via X2), in series [1] (setting [3]), the Kd is below 50 nM. In series [2], the “Stability (molecule stability, residual rate of the cyclic peptide rank)” value is “A (The residual rate of the cyclic peptide is 70% or more.)”.
`CC[C@H](C)[C@@H]1NC(=O)[C@@H](NC(=O)[C@H](C)NC(=O)[C@H](CCCCN)NC(=O)[C@H](CCCCN)NC(=O)[C@@H](N)CCCCN)CCSCC(=O)NCC[C@@H](C(=O)N[C@@H](C)C(=O)O)NC(=O)[C@H](C)NC(=O)[C@H](Cc2ccccc2)NC(=O)[C@H](C)NC(=O)[C@H](CC(=O)O)NC(=O)CNC(=O)[C@H](CCCNC(=N)N)NC(=O)[C@@H]2CCCN2C1=O` [Cyclic peptide 90, KKKA-(Hcy)-IPRGDAFA(Dab(acetyl))A] (H-KKKA[hCys]IPRGDAFA[Dab]A-OH; linker 5-14 via X2): the Kd in series [1] (setting [4]) is below 50 nM. Moreover, the “Performance evaluation: Stability (residual rate of cyclic peptide after alkali treatment)” value in series [2] was “A (The residual rate of the cyclic peptide is 70% or more.)”.
In the case of `CC(C)[C@@H]1NC(=O)[C@@H](NC(=O)[C@H](CCCCN)NC(=O)[C@H](CCCCN)NC(=O)[C@@H](N)CCCCN)CCSCC(=O)NCC[C@@H](C(=O)O)NC(=O)[C@H](C)NC(=O)[C@H](Cc2ccccc2)NC(=O)[C@H](CO)NC(=O)[C@H](CC(=O)O)NC(=O)CNC(=O)[C@H](CCCNC(=N)N)NC(=O)[C@@H]2CCCN2C1=O` [Cyclic peptide 102, KKK-(Hcy)-VPRGDSFA(Dab(acetyl))] (H-KKK[hCys]VPRGDSFA[Dab]-OH; linker 4-13 via X2), in series [1] (setting [3]), the Kd was below 50 nM. Also, the “Stability (molecule stability, residual rate of the cyclic peptide rank)” value in series [2] is listed as “A (The residual rate of the cyclic peptide is 70% or more.)”.
`CC[C@H](C)[C@@H]1NC(=O)[C@@H](NC(=O)[C@H](C)N)CCSCC(=O)NCC[C@@H](C(=O)N[C@@H](C)C(=O)N[C@@H](CCCCN)C(=O)N[C@@H](CCCCN)C(=O)N[C@@H](CCCCN)C(=O)O)NC(=O)[C@H](C)NC(=O)[C@H](Cc2ccccc2)NC(=O)[C@H](CO)NC(=O)[C@H](CC(=O)O)NC(=O)CNC(=O)[C@H](CCCNC(=N)N)NC(=O)[C@@H]2CCCN2C1=O` [Cyclic peptide 100, A-(Hcy)-IPRGDSFA(Dab(acetyl))AKKK] (H-A[hCys]IPRGDSFA[Dab]AKKK-OH; linker 2-11 via X2): in series [1] (setting [4]), the Kd was below 50 nM. For the same molecule, the “Performance evaluation: Stability (residual rate of cyclic peptide after alkali treatment)” value in series [2] is “A (The residual rate of the cyclic peptide is 70% or more.)”.
On to `N=C(N)NCCC[C@@H]1NC(=O)[C@H](Cc2ccc(O)cc2)NC(=O)[C@H](CC(N)=O)NC(=O)[C@H](CC(=O)O)NC(=O)CNC(=O)[C@H](CCCNC(=N)N)NC(=O)[C@@H]2CCCN2C(=O)[C@H](CCC(=O)O)NC(=O)[C@@H](NC(=O)CCNC(=O)[C@H](CCCCN)NC(=O)[C@H](CCCCN)NC(=O)[C@@H](N)CCCCN)CCSCC(=O)NCC[C@@H](C(N)=O)NC1=O` [Cyclic peptide 51, KKKβA-(Hcy)-EPRGDNYR(Dab(acetyl))] (H-KKK[βAla][hCys]EPRGDNYR[Dab]-NH2; linker 5-14 via X2), for which the Kd in series [1] (setting [4]) lay within 100 to 200 nM. Moreover, in series [2], the “Performance evaluation: Stability (residual rate of cyclic peptide after alkali treatment)” value is given as “A (The residual rate of the cyclic peptide is 70% or more.)”.
For the molecule `CC[C@H](C)[C@@H]1NC(=O)[C@@H](NC(=O)[C@H](C)NC(=O)[C@H](CCCCN)NC(=O)[C@H](CCCCN)NC(=O)[C@@H](N)CCCCN)CCNC(=O)CSCC[C@@H](C(=O)N[C@@H](C)C(=O)O)NC(=O)[C@H](C)NC(=O)[C@H](Cc2ccccc2)NC(=O)[C@H](CO)NC(=O)[C@H](CC(=O)O)NC(=O)CNC(=O)[C@H](CCCNC(=N)N)NC(=O)[C@@H]2CCCN2C1=O` [Cyclic peptide 124, KKKA(Dab(acetyl))IPRGDSFA-(Hcy)-A] (H-KKKA[Dab]IPRGDSFA[hCys]A-OH; linker 5-14 via X1), the Kd in series [1] (setting [3]) was in the range of 50 to 100 nM. The “Stability (molecule stability, residual rate of the cyclic peptide rank)” value in series [2] is reported as “A (The residual rate of the cyclic peptide is 70% or more.)”.
The matching figures for `CC[C@H](C)[C@@H]1NC(=O)[C@@H](NC(=O)CNC(=O)[C@H](CCCCN)NC(=O)[C@H](CCCCN)NC(=O)[C@@H](N)CCCCN)CCNC(=O)CSCC[C@@H](C(=O)N[C@@H](C)C(=O)O)NC(=O)[C@H](CCCNC(=N)N)NC(=O)[C@H](Cc2ccccc2)NC(=O)[C@H]([C@@H](C)O)NC(=O)[C@H](CC(=O)O)NC(=O)CNC(=O)[C@H](CCCNC(=N)N)NC(=O)[C@@H]2CCCN2C1=O` [Cyclic peptide 118, KKKG(Dab(acetyl))IPRGDTFR-(Hcy)-A] (H-KKKG[Dab]IPRGDTFR[hCys]A-OH; linker 5-14 via X1): below 50 nM and “A (The residual rate of the cyclic peptide is 70% or more.)”.
On to `CC[C@H](C)[C@@H]1NC(=O)[C@@H](NC(=O)[C@H](C)NC(=O)[C@H](CCCCN)NC(=O)[C@H](CCCCN)NC(=O)[C@@H](N)CCCCN)CCSCC(=O)NCC[C@@H](C(=O)N[C@@H](C)C(=O)O)NC(=O)[C@H](CCCNC(=N)N)NC(=O)[C@H](Cc2ccccc2)NC(=O)[C@H]([C@@H](C)O)NC(=O)[C@H](CC(=O)O)NC(=O)CNC(=O)[C@H](CCCNC(=N)N)NC(=O)[C@@H]2CCCN2C1=O` [Cyclic peptide 56, KKKA-(Hcy)-IPRGDTFR(Dab(acetyl))A] (H-KKKA[hCys]IPRGDTFR[Dab]A-OH; linker 5-14 via X2), for which, in series [1] (setting [4]), the Kd is below 50 nM. In addition, in series [2], the “Performance evaluation: Stability (residual rate of cyclic peptide after alkali treatment)” value is on record as “A (The residual rate of the cyclic peptide is 70% or more.)”.
Regarding `CC[C@H](C)[C@@H]1NC(=O)[C@@H](NC(=O)[C@H](CCCCN)NC(=O)[C@H](CCCCN)NC(=O)[C@@H](N)CCCCN)CCSCC(=O)NCC[C@@H](C(=O)O)NC(=O)[C@H](CCCNC(=N)N)NC(=O)[C@H](Cc2ccccc2)NC(=O)[C@H](CC(N)=O)NC(=O)[C@H](CC(=O)O)NC(=O)CNC(=O)[C@H](CCCNC(=N)N)NC(=O)[C@@H]2CCCN2C1=O` [Cyclic peptide 11, KKK-(Hcy)-IPRGDNFR(Dab(acetyl))] (H-KKK[hCys]IPRGDNFR[Dab]-OH; linker 4-13 via X2), the Kd in series [1] (setting [4]) was below 50 nM. Also, the “Performance evaluation: Stability (residual rate of cyclic peptide after alkali treatment)” value in series [2] was “A (The residual rate of the cyclic peptide is 70% or more.)”.
